The text below walks through data of the OligoGym collection.

In this series the target is Cacnb1 (rat). Put plainly: reporter assay of Huesken 2005. As to conditions: siRNA. (Reporter assays use an easily measured gene product as a stand-in for the process of interest.)

Oligonucleotides are given in HELM: sugar(base)linkage, 5' to 3'; d 2'-deoxyribose, r ribose, m 2'-O-methylribose, p phosphate. ss, as = sense and antisense strand
Further: test concentration or dose not given here.

“RNA1{r(G)p.r(G)p.r(C)p.r(U)p.r(C)p.r(C)p.r(U)p.r(G)p.r(G)p.r(G)p.r(A)p.r(A)p.r(G)p.r(A)p.r(G)p.r(G)p.r(A)p.r(G)p.r(G)p.d(T)p.d(T)}|RNA2{r(C)p.r(C)p.r(U)p.r(C)p.r(C)p.r(U)p.r(C)p.r(U)p.r(U)p.r(C)p.r(C)p.r(C)p.r(A)p.r(G)p.r(G)p.r(A)p.r(G)p.r(C)p.r(C)p.d(C)p.d(T)}$$$RNA1{StrandType:ss}|RNA2{StrandType:as}$”: the normalised inhibition (eCFP-eYFP dual reporter) was determined as 46.7%. Under “RNA1{r(U)p.r(C)p.r(G)p.r(A)p.r(C)p.r(A)p.r(G)p.r(A)p.r(G)p.r(C)p.r(A)p.r(C)p.r(G)p.r(U)p.r(G)p.r(C)p.r(C)p.r(C)p.r(C)p.d(T)p.d(T)}|RNA2{r(G)p.r(G)p.r(G)p.r(G)p.r(C)p.r(A)p.r(C)p.r(G)p.r(U)p.r(G)p.r(C)p.r(U)p.r(C)p.r(U)p.r(G)p.r(U)p.r(C)p.r(G)p.r(A)p.d(C)p.d(T)}$$$RNA1{StrandType:ss}|RNA2{StrandType:as}$” stands 39.9%; under “RNA1{r(U)p.r(U)p.r(A)p.r(G)p.r(C)p.r(C)p.r(C)p.r(A)p.r(G)p.r(C)p.r(U)p.r(C)p.r(G)p.r(A)p.r(G)p.r(A)p.r(A)p.r(A)p.r(G)p.d(T)p.d(T)}|RNA2{r(C)p.r(U)p.r(U)p.r(U)p.r(C)p.r(U)p.r(C)p.r(G)p.r(A)p.r(G)p.r(C)p.r(U)p.r(G)p.r(G)p.r(G)p.r(C)p.r(U)p.r(A)p.r(A)p.d(G)p.d(G)}$$$RNA1{StrandType:ss}|RNA2{StrandType:as}$”, 63.7%. Under “RNA1{r(G)p.r(A)p.r(G)p.r(U)p.r(G)p.r(A)p.r(A)p.r(A)p.r(U)p.r(C)p.r(G)p.r(A)p.r(G)p.r(C)p.r(G)p.r(G)p.r(A)p.r(U)p.r(C)p.d(T)p.d(T)}|RNA2{r(G)p.r(A)p.r(U)p.r(C)p.r(C)p.r(G)p.r(C)p.r(U)p.r(C)p.r(G)p.r(A)p.r(U)p.r(U)p.r(U)p.r(C)p.r(A)p.r(C)p.r(U)p.r(C)p.d(T)p.d(G)}$$$RNA1{StrandType:ss}|RNA2{StrandType:as}$” stands 84.9%. With “RNA1{r(G)p.r(C)p.r(C)p.r(A)p.r(A)p.r(A)p.r(A)p.r(C)p.r(C)p.r(G)p.r(C)p.r(C)p.r(U)p.r(C)p.r(A)p.r(G)p.r(C)p.r(U)p.r(C)p.d(T)p.d(T)}|RNA2{r(G)p.r(A)p.r(G)p.r(C)p.r(U)p.r(G)p.r(A)p.r(G)p.r(G)p.r(C)p.r(G)p.r(G)p.r(U)p.r(U)p.r(U)p.r(U)p.r(G)p.r(G)p.r(C)p.d(G)p.d(C)}$$$RNA1{StrandType:ss}|RNA2{StrandType:as}$” the figure was 54.1%. “RNA1{r(U)p.r(C)p.r(C)p.r(U)p.r(G)p.r(C)p.r(A)p.r(C)p.r(A)p.r(U)p.r(C)p.r(A)p.r(A)p.r(G)p.r(G)p.r(A)p.r(G)p.r(A)p.r(A)p.d(T)p.d(T)}|RNA2{r(U)p.r(U)p.r(C)p.r(U)p.r(C)p.r(C)p.r(U)p.r(U)p.r(G)p.r(A)p.r(U)p.r(G)p.r(U)p.r(G)p.r(C)p.r(A)p.r(G)p.r(G)p.r(A)p.d(A)p.d(G)}$$$RNA1{StrandType:ss}|RNA2{StrandType:as}$”: the normalised inhibition (eCFP-eYFP dual reporter) was found to be 94%.

Substance “RNA1{r(C)p.r(U)p.r(G)p.r(A)p.r(G)p.r(G)p.r(U)p.r(A)p.r(C)p.r(A)p.r(G)p.r(A)p.r(G)p.r(U)p.r(G)p.r(A)p.r(A)p.r(A)p.r(U)p.d(T)p.d(T)}|RNA2{r(A)p.r(U)p.r(U)p.r(U)p.r(C)p.r(A)p.r(C)p.r(U)p.r(C)p.r(U)p.r(G)p.r(U)p.r(A)p.r(C)p.r(C)p.r(U)p.r(C)p.r(A)p.r(G)p.d(C)p.d(C)}$$$RNA1{StrandType:ss}|RNA2{StrandType:as}$” yielded a normalised inhibition (eCFP-eYFP dual reporter) of 59.1%.

Substance “RNA1{r(G)p.r(A)p.r(G)p.r(A)p.r(U)p.r(C)p.r(C)p.r(C)p.r(U)p.r(A)p.r(U)p.r(G)p.r(G)p.r(A)p.r(G)p.r(G)p.r(U)p.r(C)p.r(U)p.d(T)p.d(T)}|RNA2{r(A)p.r(G)p.r(A)p.r(C)p.r(C)p.r(U)p.r(C)p.r(C)p.r(A)p.r(U)p.r(A)p.r(G)p.r(G)p.r(G)p.r(A)p.r(U)p.r(C)p.r(U)p.r(C)p.d(T)p.d(T)}$$$RNA1{StrandType:ss}|RNA2{StrandType:as}$” displayed a normalised inhibition (eCFP-eYFP dual reporter) of 71.5%.

“RNA1{r(A)p.r(A)p.r(G)p.r(A)p.r(A)p.r(U)p.r(G)p.r(A)p.r(G)p.r(C)p.r(U)p.r(G)p.r(G)p.r(A)p.r(G)p.r(G)p.r(G)p.r(C)p.r(U)p.d(T)p.d(T)}|RNA2{r(A)p.r(G)p.r(C)p.r(C)p.r(C)p.r(U)p.r(C)p.r(C)p.r(A)p.r(G)p.r(C)p.r(U)p.r(C)p.r(A)p.r(U)p.r(U)p.r(C)p.r(U)p.r(U)p.d(A)p.d(T)}$$$RNA1{StrandType:ss}|RNA2{StrandType:as}$” gave a normalised inhibition (eCFP-eYFP dual reporter) of 54.2%. With “RNA1{r(U)p.r(G)p.r(G)p.r(A)p.r(C)p.r(A)p.r(G)p.r(C)p.r(C)p.r(U)p.r(U)p.r(C)p.r(G)p.r(C)p.r(C)p.r(U)p.r(G)p.r(C)p.r(U)p.d(T)p.d(T)}|RNA2{r(A)p.r(G)p.r(C)p.r(A)p.r(G)p.r(G)p.r(C)p.r(G)p.r(A)p.r(A)p.r(G)p.r(G)p.r(C)p.r(U)p.r(G)p.r(U)p.r(C)p.r(C)p.r(A)p.d(G)p.d(T)}$$$RNA1{StrandType:ss}|RNA2{StrandType:as}$” the figure was 39.5%. The substance “RNA1{r(C)p.r(G)p.r(A)p.r(A)p.r(A)p.r(C)p.r(U)p.r(C)p.r(U)p.r(G)p.r(U)p.r(C)p.r(U)p.r(A)p.r(C)p.r(A)p.r(C)p.r(G)p.r(G)p.d(T)p.d(T)}|RNA2{r(C)p.r(C)p.r(G)p.r(U)p.r(G)p.r(U)p.r(A)p.r(G)p.r(A)p.r(C)p.r(A)p.r(G)p.r(A)p.r(G)p.r(U)p.r(U)p.r(U)p.r(C)p.r(G)p.d(G)p.d(C)}$$$RNA1{StrandType:ss}|RNA2{StrandType:as}$” gave a normalised inhibition (eCFP-eYFP dual reporter) of 44%. “RNA1{r(A)p.r(G)p.r(C)p.r(U)p.r(C)p.r(U)p.r(C)p.r(U)p.r(A)p.r(A)p.r(A)p.r(A)p.r(C)p.r(C)p.r(U)p.r(C)p.r(G)p.r(C)p.r(U)p.d(T)p.d(T)}|RNA2{r(A)p.r(G)p.r(C)p.r(G)p.r(A)p.r(G)p.r(G)p.r(U)p.r(U)p.r(U)p.r(U)p.r(A)p.r(G)p.r(A)p.r(G)p.r(A)p.r(G)p.r(C)p.r(U)p.d(G)p.d(G)}$$$RNA1{StrandType:ss}|RNA2{StrandType:as}$” returned a normalised inhibition (eCFP-eYFP dual reporter) of 56.1%. Turning to “RNA1{r(U)p.r(A)p.r(C)p.r(A)p.r(U)p.r(C)p.r(C)p.r(G)p.r(C)p.r(U)p.r(G)p.r(A)p.r(G)p.r(A)p.r(G)p.r(G)p.r(C)p.r(A)p.r(G)p.d(T)p.d(T)}|RNA2{r(C)p.r(U)p.r(G)p.r(C)p.r(C)p.r(U)p.r(C)p.r(U)p.r(C)p.r(A)p.r(G)p.r(C)p.r(G)p.r(G)p.r(A)p.r(U)p.r(G)p.r(U)p.r(A)p.d(G)p.d(A)}$$$RNA1{StrandType:ss}|RNA2{StrandType:as}$”, the normalised inhibition (eCFP-eYFP dual reporter) came to 39.5%. Take “RNA1{r(A)p.r(G)p.r(C)p.r(C)p.r(G)p.r(G)p.r(C)p.r(C)p.r(G)p.r(U)p.r(C)p.r(A)p.r(G)p.r(A)p.r(C)p.r(U)p.r(C)p.r(C)p.r(G)p.d(T)p.d(T)}|RNA2{r(C)p.r(G)p.r(G)p.r(A)p.r(G)p.r(U)p.r(C)p.r(U)p.r(G)p.r(A)p.r(C)p.r(G)p.r(G)p.r(C)p.r(C)p.r(G)p.r(G)p.r(C)p.r(U)p.d(C)p.d(G)}$$$RNA1{StrandType:ss}|RNA2{StrandType:as}$”: the normalised inhibition (eCFP-eYFP dual reporter) amounted to 44.2%.
